Measurements: patent publication US20050142581A1, “Microrna as ligands and target molecules” (priority 2003, published 2005)
Oligonucleotides are written 5' to 3', each unit as a sugar letter and its base; * is a phosphorothioate linkage, no mark a phosphodiester; rarer units and linkages stand in square brackets, end groups in braces. Plain capitals give the bases only. d = 2'-deoxy (DNA)

These substances were tested on human CD40 mRNA (assay: Inhibition of CD40 mRNA levels by oligonucleotides (real-time RT-PCR)). Conditions: oligodeoxynucleotides with phosphorothioate backbones throughout; averages from three experiments.
Format: cell-based
Design: concentration or dose not given beside the values
Description: When cells reach about 80% confluency, they are treated with oligonucleotide. For cells grown in 96-well plates, wells are washed once with 200 μl Opti-MEM-1 reduced-serum medium (Life Technologies) and then treated with 130 μl of Opti-MEM-1 containing 3.75 μg/ml LIPOFECTIN (Life Technologies) and the desired oligonucleotide at a final concentration of 150 nM. After 4 hours of treatment, the medium was replaced with fresh medium. Cells were harvested 16 hours after oligonucleotide treatment.
Poly(A)+ mRNA was isolated according to Miura et al. (Clin. Chem., 1996, 42, 1758). Briefly, for cells grown on 96-well plates, growth medium was removed from the cells and each well was washed with 200 ul cold PBS. 60 ul lysis buffer (10 mM Tris-HCl, pH 7.6, 1 mM EDTA, 0.5 M NaCl, 0.5% NP-40, 20 mM vanadyl-ribonucleoside complex) was added to each well, the plate was gently agitated and then incubated at room temperature for five minutes. 55 ul of lysate was transferred to Oligo d(T) coated 96 well plates (AGCT Inc., Irvine, Calif.). Plates were incubated for 60 minutes at room temperature, washed 3 times with 200 ul of wash buffer (10 mM Tris-HCl pH 7.6, 1 mM EDTA, 0.3 M NaCl). After the final wash, the plate was blotted on paper towels to remove excess wash buffer and then air-dried for 5 minutes. 60 ul of elution buffer (5 mM Tris-HCl pH 7.6), preheated to 70° C. was added to each well, the plate was incubated on a 90° hot plate for 5 minutes, and the eluate then transferred to a fresh 96 well plate. Cells grown on 100 mm or other standard plates may be treated similarly, using appropriate volumes of all solutions.
Quantitation of CD40 mRNA levels was determined by real-time PCR (RT-PCR) using the ABI PRISM 7700 Sequence Detection System (PE-Applied Biosystems, Foster City, Calif.) according to manufacturer's instructions. This is a closed-tube, non-gel-based, fluorescence detection system which allows high-throughput quantitation of polymerase chain reaction (PCR) products in real-time.
As opposed to standard PCR, in which amplification products are quantitated after the PCR is completed, products in RT-PCR are quantitated as they accumulate. This is accomplished by including in the PCR reaction an oligonucleotide probe that anneals specifically between the forward and reverse PCR primers, and contains two fluorescent dyes. A reporter dye (e.g., JOE or FAM, PE-Applied Biosystems, Foster City, Calif.) is attached to the 5′ end of the probe and a quencher dye (e.g., TAMRA, PE-Applied Biosystems, Foster City, Calif.) is attached to the 3′ end of the probe. When the probe and dyes are intact, reporter dye emission is quenched by the proximity of the 3′ quencher dye. During amplification, annealing of the probe to the target sequence creates a substrate that can be cleaved by the 5′-exonuclease activity of Taq polymerase.
With each cycle, additional reporter dye molecules are cleaved from their respective probes, and the fluorescence intensity is monitored at regular (six-second) intervals by laser optics built into the ABI PRISM 7700 Sequence Detection System. In each assay, a series of parallel reactions containing serial dilutions of mRNA from untreated control samples generates a standard curve that is used to quantitate the percent inhibition after antisense oligonucleotide treatment of test samples.
RT-PCR reagents were obtained from PE-Applied Biosystems, Foster City, Calif. RT-PCR reactions were carried out by adding 25 ul PCR cocktail (1× Taqman buffer A, 5.5 mM MgCl2, 300 uM each of dATP, dCTP and dGTP, 600 uM of dUTP, 100 nM each of forward primer, reverse primer, and probe, 20 U RNAse inhibitor, 1.25 units AmpliTaq Gold, and 12.5 U MuLV reverse transcriptase) to 96 well plates containing 25 ul poly(A) mRNA solution. […]

| Substance | % INHIB. (Inhibition of CD40 mRNA Levels by Phosphorothioate Oligodeoxynucleotides) [%] |
| --- | --- |
| 18659 (DNA dG*dT*dG*dC*dC*dA*dG*dC*dC*dT*dT*dC*dT*dT*dC*dA*dC*dA; antisense) [compound 18659] | 5.67 |
| 18660 (DNA dT*dA*dC*dA*dG*dT*dG*dC*dC*dA*dG*dC*dC*dT*dT*dC*dT*dT; antisense) [compound 18660] | 7.80 |
| 18661 (DNA dG*dG*dA*dC*dA*dC*dA*dG*dC*dT*dC*dT*dC*dA*dC*dA*dG*dG; antisense) [compound 18661] | 0.00 |
| 18662 (DNA dT*dG*dC*dA*dG*dG*dA*dC*dA*dC*dA*dG*dC*dT*dC*dT*dC*dA; antisense) [compound 18662] | 0.00 |
| 18663 (DNA dG*dA*dG*dC*dG*dG*dT*dG*dC*dA*dG*dG*dA*dC*dA*dC*dA*dG; antisense) [compound 18663] | 0.00 |
| 18664 (DNA dA*dA*dG*dC*dC*dG*dG*dG*dC*dG*dA*dG*dC*dA*dT*dG*dA*dG; antisense) [compound 18664] | 0.00 |
| 18665 (DNA dA*dA*dT*dC*dT*dG*dC*dT*dT*dG*dA*dC*dC*dC*dC*dA*dA*dA; antisense) [compound 18665] | 5.59 |
| 18666 (DNA dG*dA*dA*dA*dC*dC*dC*dC*dT*dG*dT*dA*dG*dC*dA*dA*dT*dC; antisense) [compound 18666] | 0.10 |
| 18667 (DNA dG*dT*dA*dT*dC*dA*dG*dA*dA*dA*dC*dC*dC*dC*dT*dG*dT*dA; antisense) [compound 18667] | 0.00 |
| 18668 (DNA dG*dC*dT*dC*dG*dC*dA*dG*dA*dT*dG*dG*dT*dA*dT*dC*dA*dG; antisense) [compound 18668] | 0.00 |
| 18669 (DNA dG*dC*dA*dG*dG*dG*dC*dT*dC*dG*dC*dA*dG*dA*dT*dG*dG*dT; antisense) [compound 18669] | 34.05 |
| 18670 (DNA dT*dG*dG*dG*dC*dA*dG*dG*dG*dC*dT*dC*dG*dC*dA*dG*dA*dT; antisense) [compound 18670] | 0.00 |
| 18671 (DNA dG*dA*dC*dT*dG*dG*dG*dC*dA*dG*dG*dG*dC*dT*dC*dG*dC*dA; antisense) [compound 18671] | 2.71 |
| 18672 (DNA dC*dA*dT*dT*dG*dG*dA*dG*dA*dA*dG*dA*dA*dG*dC*dC*dG*dA; antisense) [compound 18672] | 0.00 |
| 18673 (DNA dG*dA*dT*dG*dA*dC*dA*dC*dA*dT*dT*dG*dG*dA*dG*dA*dA*dG; antisense) [compound 18673] | 0.00 |
| 18674 (DNA dG*dC*dA*dG*dA*dT*dG*dA*dC*dA*dC*dA*dT*dT*dG*dG*dA*dG; antisense) [compound 18674] | 0.00 |
| 18675 (DNA dT*dC*dG*dA*dA*dA*dG*dC*dA*dG*dA*dT*dG*dA*dC*dA*dC*dA; antisense) [compound 18675] | 0.00 |
| 18676 (DNA dG*dT*dC*dC*dA*dA*dG*dG*dG*dT*dG*dA*dC*dA*dT*dT*dT*dT; antisense) [compound 18676] | 8.01 |
| 18677 (DNA dC*dA*dC*dA*dG*dC*dT*dT*dG*dT*dC*dC*dA*dA*dG*dG*dG*dT; antisense) [compound 18677] | 0.00 |

| Substance | % INHIB. (Inhibition of CD40 mRNA Levels by Phosphorothioate Oligodeoxynucleotides) [%] |
| --- | --- |
| 18678 (DNA dT*dT*dG*dG*dT*dC*dT*dC*dA*dC*dA*dG*dC*dT*dT*dG*dT*dC; antisense) [compound 18678] | 0.00 |
| 18679 (DNA dC*dA*dG*dG*dT*dC*dT*dT*dT*dG*dG*dT*dC*dT*dC*dA*dC*dA; antisense) [compound 18679] | 6.98 |
| 18680 (DNA dC*dT*dG*dT*dT*dG*dC*dA*dC*dA*dA*dC*dC*dA*dG*dG*dT*dC; antisense) [compound 18680] | 18.76 |
| 18681 (DNA dG*dT*dT*dT*dG*dT*dG*dC*dC*dT*dG*dC*dC*dT*dG*dT*dT*dG; antisense) [compound 18681] | 2.43 |
| 18682 (DNA dG*dT*dC*dT*dT*dG*dT*dT*dT*dG*dT*dG*dC*dC*dT*dG*dC*dC; antisense) [compound 18682] | 0.00 |
| 18683 (DNA dC*dC*dA*dC*dA*dG*dA*dC*dA*dA*dC*dA*dT*dC*dA*dG*dT*dC; antisense) [compound 18683] | 0.00 |
| 18684 (DNA dC*dT*dG*dG*dG*dG*dA*dC*dC*dA*dC*dA*dG*dA*dC*dA*dA*dC; antisense) [compound 18684] | 0.00 |
| 18685 (DNA dT*dC*dA*dG*dC*dC*dG*dA*dT*dC*dC*dT*dG*dG*dG*dG*dA*dC; antisense) [compound 18685] | 0.00 |
| 18686 (DNA dC*dA*dC*dC*dA*dC*dC*dA*dG*dG*dG*dC*dT*dC*dT*dC*dA*dG; antisense) [compound 18686] | 23.31 |
| 18687 (DNA dG*dG*dG*dA*dT*dC*dA*dC*dC*dA*dC*dC*dA*dG*dG*dG*dC*dT; antisense) [compound 18687] | 0.00 |
| 18688 (DNA dG*dA*dG*dG*dA*dT*dG*dG*dC*dA*dA*dA*dC*dA*dG*dG*dA*dT; antisense) [compound 18688] | 0.00 |
| 18689 (DNA dA*dC*dC*dA*dG*dC*dA*dC*dC*dA*dA*dG*dA*dG*dG*dA*dT*dG; antisense) [compound 18689] | 0.00 |
| 18690 (DNA dT*dT*dT*dT*dG*dA*dT*dA*dA*dA*dG*dA*dC*dC*dA*dG*dC*dA; antisense) [compound 18690] | 0.00 |
| 18691 (DNA dT*dA*dT*dT*dG*dG*dT*dT*dG*dG*dC*dT*dT*dC*dT*dT*dG*dG; antisense) [compound 18691] | 0.00 |
| 18692 (DNA dG*dG*dG*dT*dT*dC*dC*dT*dG*dC*dT*dT*dG*dG*dG*dG*dT*dG; antisense) [compound 18692] | 0.00 |
| 18693 (DNA dG*dT*dC*dG*dG*dG*dA*dA*dA*dA*dT*dT*dG*dA*dT*dC*dT*dC; antisense) [compound 18693] | 0.00 |
| 18694 (DNA dG*dA*dT*dC*dG*dT*dC*dG*dG*dG*dA*dA*dA*dA*dT*dT*dG*dA; antisense) [compound 18694] | 0.00 |
| 18695 (DNA dG*dG*dA*dG*dC*dC*dA*dG*dG*dA*dA*dG*dA*dT*dC*dG*dT*dC; antisense) [compound 18695] | 0.00 |
| 18696 (DNA dT*dG*dG*dA*dG*dC*dC*dA*dG*dG*dA*dA*dG*dA*dT*dC*dG*dT; antisense) [compound 18696] | 0.00 |
